According to publication PMC7367283, “A PIP2 substitute mediates voltage sensor-pore coupling in KCNQ activation” (Communications Biology, 2020):
Several values for one entry are separate records, joined by “and”; a condition that tells them apart may be missing. Identical values can stand only once.

Target: KCNQ2/KCNQ3* (Homo sapiens, UniProt O43525+O43526, A315T)
Experiment: Two-electrode voltage clamp of KCNQ2+KCNQ3* in Xenopus oocytes
Format: cell-based
Details: Q2/Q3*, individual oocytes
Description: KCNQ2 and KCNQ3 form a channel complex that carries M currents in neurons. Similar to KCNQ1, these KCNQ subunits require PIP2 for voltage-dependent activation. KCNQ2 alone can express functional channels in Xenopus oocytes, while KCNQ3 alone cannot. However, a single mutation, A315T, allows KCNQ3 to functionally express in Xenopus oocytes. We examined the effects of CP1 on KCNQ2, KCNQ3 with mutation A315T (denoted as KCNQ3*), KCNQ2+KCNQ3, and KCNQ2+KCNQ3* expressed in Xenopus oocytes (Fig. 5a). Similar to the effects on KCNQ1 and IKs channels, CP1 changed the amplitude of currents (Fig. 5b), shifted the G–V relation to more negative voltages (Fig. 5c), and slowed the deactivation kinetics (Fig. 5d) for all of these KCNQ channels. These CP1 effects were relatively small on KCNQ2 as compared with those on other KCNQ channels, and the effects on KCNQ2/KCNQ3* and KCNQ2/KCNQ3 complexes were closer to those on KCNQ2 alone.
Fig. 5 Subtype selectivity of CP1 on KCNQ channels. a Current traces of KCNQ channels as indicated in the absence and the presence of 10 µM CP1. […]
The whole-oocyte ionic currents were recorded with a GeneClamp 500B amplifier (Axon Instruments, CA) or iTEV90 amplifier (HEKA, Germany) and then sampled at 1 kHz and low-pass-filtered at 2 kHz. […] The Kir1.1 current was recorded with a high K^+ bath solution containing (in mM) 96 KCl, 4 NaCl, 1 CaCl2, 2 MgCl2, and 10 HEPES, pH 7.3–7.4. The HCN4 current was recorded in ND66 solution containing (in mM) 66 NaCl, 32 KCl, 1.8 CaCl2, 1 MgCl2, and 5 HEPES, pH 7.6. All the other potassium channels were recorded in ND96 solution. The currents of CaV1.2 channel were recorded in 40 mM Ba^2+ bath solution containing (in mM) 40 Ba(OH)2, 50 TEA-OH, 2 KOH, and 5 HEPES, adjusted to pH 7.4 with methanesulfonic acid. […] The HCN4 currents were recorded by a test pulse between −30 and −140 mV in 10-mV step from a holding potential of −30 mV. […]

- outward current (Icp1/Ictrl) (10 µM CP1, at −10 mV): 1.1575 and 0.9892 and 1.0474 and 1.088
Structure (SMILES): O=S(=O)([O-])Oc1c(-c2sc3c(ccc4cccc(Cl)c43)c2OS(=O)(=O)[O-])[nH]c2ccc(Br)cc12.[Na+].[Na+] [CP1, DISODIUM 5-BROMO-2-[9-CHLORO-3-(SULFONATOOXY) NAPHTHO [1,2-B] THIEN-2-YL]-1H-INDOL-3-YL SULFATE]
- ∆V1/2 (10 µM CP1): 15.9435 mV and 15.3238 mV and 21.3532 mV and 15.8237 mV
- τ deact at -120 mV (10 µM CP1 treated): 0.0814 s and 0.0836 s and 0.1825 s and 0.1031 s and 0.1951 s
